{"source": "patent US20180318383A1", "about": "“PEPTIDE HAVING NEURONAL LOSS PREVENTION AND REGENERATION EFFECTS, AND COMPOSITION CONTAINING SAME” (GEMVAX & KAEL CO., LTD., priority 2015, published 2018)", "key": {"NSCs": {"test_system": "NSCs", "test": "Cell viability of NSCs (CCK-8, MTT, LDH)", "assay_type": "cell-based, rat", "settings": "48 hours", "description": "NSCs were isolated from the brain of a rat embryo, cultured and developed. The NSC culture was performed in the same manner as to be described below. Briefly describing, a rat embryo was obtained on day 13 of the embryonic period, and the brain was quickly removed and placed in a petri dish containing cold phosphate-buffered physiological saline (Hank's balanced salt solution; HBSS).\nSingle cells were isolated from the cerebral cortex, the lateral ganglion eminence, and the embryonic midbrain. These cells were put into a dish pre-treated with L-ornithine and fibronectin, containing calcium and magnesium-free phosphate-buffered physiological saline (PBS) at a density of 20,000 cells/cm^2. In addition, the cells were cultured in an N2 medium (DMEM F/12, […] insulin, 100 mg/L transferrin, 30 nM selenite, […], 20 nM progesterone, 0.2 mM ascorbic acid, […], 8.6 mM D(+) glucose, and […]). The culture was maintained in humidified and 5% CO2 conditions for 4 to 6 days at 37° C.\nNSCs were divided into 6 samples, and each sample was treated with […] Aβ25-30 oligomers for 48 hours to identify a suitable concentration. […] Briefly, Aβ25-30 was dissolved in hexafluoroisopropanol to reach a concentration of 1 mM. In addition, the prepared solution was dispensed using a sterilized ultramicrocentrifuge tube. […]\nTo identify the PEP1 effect in NSCs, PEP1 was treated at various concentrations of 0, 1, 10, 50, 100, and 200 μM for 48 hours. […] The plate was gently washed with PBS several times, and cell viability was measured using a cell counting kit-8 (CCK-8), MTT and lactate dehydrogenase (LDH).\nCCK-8 was used as a method for counting living cells by bonding 2-[2-methoxy-4-nitrophenyl]-3-[4-nitrophenyl]-5-[2,4-disulfophenyl]-2H-tetrazolium, monosodium salt (WST-8) with 1-methoxyphenazinium methylsulfate (PMS). […] Cell viability was evaluated by measuring absorbance at 450 nm. […] Cell viability was evaluated by measuring absorbance at 490 nm and reference absorbance at 690 nm. […]"}, "[1]": {"test_system": "primary cultured cortical nerve", "test": "Intracellular signaling proteins in damaged neurons", "assay_type": "cell-based, rat", "settings": "Aβ25-35 + PEP1", "description": "A primary cultured cortical nerve was obtained from the cerebral cortex of the fetal rat on day 16 of the embryonic period. Briefly, the brain was rapidly removed from the rat, and placed in a petri dish containing cold phosphate-buffered physiological saline (HBSS). Single cells were isolated from the cerebral cortex, and added into a previously poly-L-lysine-coated Corning dish with a diameter of 100 mm, or a glass coverslip was placed in a 6- or 24-well plate. The cultured cells were cultured in DMEM (high glucose).\nTwo days after the cells were added, non-neuronal cells were removed through treatment of 5 μM cytosine arabinoside for 24 hours. Only the mature culture (7 days in the test tube) was used in this experiment. Approximately 79.7% of a group of neurons was obtained from the neurons of a primary cortex. […]"}}, "data": [{"sequence": "EARPALLTSRLRFIPK (homo sapiens) [PEP1, hTERT-derived peptide consisting of 16 amino acids, telomerase location [611-626]]", "values": [{"measurement": "survival ability of NSCs", "setting": "NSCs; 20 μM Aβ25-35 + PEP1 up to 100 μM, vs 20 μM Aβ25-35 only, MTT, CCK-8, LDH", "result": "gradually increased"}, {"measurement": "cell survival ability", "setting": "NSCs; NSCs, PEP1 alone 0-200 μM, CCK-8, up to 100 μM", "result": "not influenced"}, {"measurement": "apoptosis-associated proteins", "setting": "[1]", "result": "a low amount"}, {"measurement": "proliferation-associated proteins", "setting": "[1]", "result": "a large amount"}]}]}
